Test results from US20220289746A1, “PYRROLIDINE DERIVATIVES” (Hoffmann-La Roche Inc., priority 2019, published 2022).

What was measured:
[1] = molecular target: T1, human M4 receptor (Homo sapiens, UniProt P08173); experiment: cAMP assay for M4 positive allosteric modulators (M4 PAM cAMP assay); format: cell-based; parameters: expressed in transfected cells; host or cells: CHO-K1; settings: Table 1; CHO-K1 cells expressing human M4; forskolin 7.5 μM + acetylcholine EC20 (0.2 nM)
T1 sequence (P08173 1-479): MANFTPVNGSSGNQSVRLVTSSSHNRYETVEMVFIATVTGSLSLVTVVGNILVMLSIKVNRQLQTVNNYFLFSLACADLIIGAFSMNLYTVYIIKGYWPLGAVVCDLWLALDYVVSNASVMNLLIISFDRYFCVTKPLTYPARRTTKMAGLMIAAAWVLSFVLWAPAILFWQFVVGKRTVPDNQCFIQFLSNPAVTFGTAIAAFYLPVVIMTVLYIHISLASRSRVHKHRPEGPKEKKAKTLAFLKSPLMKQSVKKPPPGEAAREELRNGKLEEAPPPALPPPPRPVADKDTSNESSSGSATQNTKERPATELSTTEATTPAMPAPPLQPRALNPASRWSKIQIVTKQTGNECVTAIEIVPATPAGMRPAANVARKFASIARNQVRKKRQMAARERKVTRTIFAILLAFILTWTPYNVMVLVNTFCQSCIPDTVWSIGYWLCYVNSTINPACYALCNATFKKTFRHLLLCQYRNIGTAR
Procedure: The potency of M4 PAMs was determined using a cell-based cyclic adenosine monophosphate assay. The assay was performed with CHO-Kl cells stably expressing untagged human M4 receptor and cAMP was quantified using the Nano-TRF Detection Assay kit (Roche, Cat. No. 05214386) as described in the kit instructions. The cells were grown in Ham's F-12 Nutrient mix supplemented with 10% FBS and 200 μg/ml geneticin until they reached 80% confluency. The cells were washed with PBS, detached with accutase and resuspended in assay buffer consisting of HBSS and 0.1% BSA. They were then seeded in black 384-well plates (Corning, Cat. No. 3764) at a density of 20,000 cells/20 μl per well until the addition of compounds.
Test compounds were serially diluted 1:2 in 100% DMSO and spotted in 384-well plates at 0.5 μl/well. The compounds were then diluted in water containing IBMX (Sigma, Cat. No. 17018) and a sample (5 μl) was added to the cells for 15 minutes at 37° C./5% CO2. After this incubation the cells were stimulated with a combination of forskolin (7.5 μM) and acetylcholine EC20 (0.2 nM) in assay buffer for 30 minutes at 37° C./5% CO2. The assay was stopped by adding cAMP detection mix (15 μl/well, containing detergents for cell lysis) for one hour at RT.
The test plates were read using a SpectraMax i3x reader (Molecular Devices). The exported raw data was used to calculate the FRET signal based on the P-factor as per cAMP kit instructions. The data was normalized to the activity of acetylcholine plus forskolin, with 2 nM of acetylcholine plus 7.5 μM forskolin defined as 100% activity. Dose response curves were fitted to the percent activity data of the compounds using a sigmoidal dose response model (XLfit, IDBS) and the data were reported as EC50 and percent efficacy.

[2] = molecular target: T1, human M4 receptor; experiment: Calcium flux assay using fluorescent imaging (M4 PAM FLIPR assay); format: cell-based; parameters: expressed in transfected cells; host or cells: CHO (monoclonal line, clone 2); settings: Table 1; CHO cells expressing human M4+Gqi5; acetylcholine EC20
Procedure: CHO cells were transfected with expression plasmid encoding the human M4 receptor and a Gqi5 construct to redirect Gi signaling to calcium. Stable cells were cloned by limiting dilution to yield a monoclonal cell line expressing human M4+Gqi5 (clone 2). The stable cells were grown in DMEM containing 10% FBS, 200 ug/ml Geneticin and 800 ug/ml Hygromycin at 37° C. in a 10% CO2 incubator at 95% humidity.
Calcium Flux Assay Using Fluorescent Imaging (“M4 PAM FLIPR” Assay)
On the afternoon before the assay, cells were plated at a density of 50,000 cells/well into black 96 well plates with clear bottoms to yield a confluent monolayer the next day. Hanks balanced salt solution, without phenol red, containing 20 mM HEPES (pH 7.3) and 2.5 mM probenecid (assay buffer) was prepared fresh for each experiment. Compound dilutions were made using a Beckman Biomek 2000 laboratory automation workstation, in assay buffer. The dye-loading buffer consisted of a final concentration of 2 μM Fluo-4-AM (dissolved in DMSO and pluronic acid) and 65 μg/ml amidoblack in assay buffer. The existing culture media was removed from the wells and 100 μl of the dye-loading buffer was added to each well and incubated for approximately 90 min at 37° C. in a 5% CO2 incubator at 95% humidity.
Calcium flux in the dye-loaded cells was measured with the fluorescence reader Hamamatsu FDSS 7000. To test compounds as agonists, compound addition (25 μl) was made 10 s into the fluorescent measurements and fluorescent response was recorded for 3 minutes. The fluorescence data was expressed as percentage of the fluorescence obtained by an EC100 concentration (3 μM) of the endogenous full agonist acetylcholine. Each test compound concentration-response curve was constructed using a four parameter logistic equation in Microsoft Excel XLFit as follows:
Y=Minimum+((Maximum−Minimum)/(1+10^(LogEC50−X)nH)).
The concentration of agonist that produced a half-maximal response is represented by the EC50 value. Maximum and minimum are the maximum and minimum fluorescence signal in % respectively. nH is the Hill slope.
To measure positive allosteric modulator activity 25 μl of an EC20 concentration of the endogenous agonist acetylcholine is added to the cells already pre-incubated with the test compound for 15 minutes.
The M4 PAM dose response is constructed using the agonist dose-response equation above. The concentration of PAM that produced a half-maximal response is represented by the EC50 value and the maximum signal measured is the PAM efficacy expressed in % of the EC100 (3 μM) acetylcholine response. • cAMP Assay for M4 Positive Allosteric Modulators (“M4 PAM cAMP” Assay)

| SMILES | EC50 [1] [nM] | EC50 [2] [nM] |
| --- | --- | --- |
| Cc1nc2c(c(C)c1Cl)CN(C(=O)[C@@H]1CCN(c3cccnn3)C1)C2 [Example 39, (3-chloro-2,4-dimethyl-5,7-dihydropyrrolo[3,4-b]pyridin-6-yl)-[(3R)-1-pyridazin-3-ylpyrrolidin-3-yl]methanone] | 2200 | 2520 |
| Cc1ccc(N2CC[C@@H](C(=O)N3Cc4nc(C)c(Cl)c(C)c4C3)C2)nn1 [Example 40, (3-chloro-2,4-dimethyl-5,7-dihydropyrrolo[3,4-b]pyridin-6-yl)-[(3R)-1-(6-methylpyridazin-3-yl)pyrrolidin-3-yl]methanone] | 1990 | 1290 |
| Cc1nc2c(c(C)c1Cl)CN(C(=O)[C@@H]1CCN(c3ccc(C(F)(F)F)nn3)C1)C2 [Example 41, (3-chloro-2,4-dimethyl-5,7-dihydropyrrolo[3,4-b]pyridin-6-yl)-[(3R)-1-[6-(trifluoromethyl)pyridazin-3-yl]pyrrolidin-3-yl]methanone] | 5120 | 2010 |
| COc1cncc(N2CC[C@@H](C(=O)N3Cc4nc(C)c(Cl)c(C)c4C3)C2)n1 [Example 42, (3-chloro-2,4-dimethyl-5,7-dihydropyrrolo[3,4-b]pyridin-6-yl)-[(3R)-1-(6-methoxypyrazin-2-yl)pyrrolidin-3-yl]methanone] | 2080 | 577 |
| Cc1nc2c(c(C)c1Cl)CN(C(=O)[C@@H]1CCN(c3cncc(C4CC4)n3)C1)C2 [Example 43, (3-chloro-2,4-dimethyl-5,7-dihydropyrrolo[3,4-b]pyridin-6-yl)-[(3R)-1-(6-cyclopropylpyrazin-2-yl)pyrrolidin-3-yl]methanone] | 7290 | 1210 |
| Cc1nc2c(c(C)c1Cl)CN(C(=O)[C@@H]1CCN(c3cnc(C#N)cn3)C1)C2 [Example 44, 5-[(3R)-3-(3-chloro-2,4-dimethyl-5,7-dihydropyrrolo[3,4-b]pyridine-6-carbonyl)pyrrolidin-1-yl]pyrazine-2-carbonitrile] | 1280 | 1110 |
| COc1cnc(N2CC[C@@H](C(=O)N3Cc4nc(C)c(Cl)c(C)c4C3)C2)cn1 [Example 45, (3-chloro-2,4-dimethyl-5,7-dihydropyrrolo[3,4-b]pyridin-6-yl)-[(3R)-1-(5-methoxypyrazin-2-yl)pyrrolidin-3-yl]methanone] | 1370 | 804 |
| Cc1cnc(N2CC[C@@H](C(=O)N3Cc4nc(C)c(Cl)c(C)c4C3)C2)cn1 [Example 46, (3-chloro-2,4-dimethyl-5,7-dihydropyrrolo[3,4-b]pyridin-6-yl)-[(3R)-1-(5-methylpyrazin-2-yl)pyrrolidin-3-yl]methanone] | 814 | 611 |
| Cc1nc2c(c(C)c1Cl)CN(C(=O)[C@@H]1CCN(c3cnc(C(F)(F)F)cn3)C1)C2 [Example 47, (3-chloro-2,4-dimethyl-5,7-dihydropyrrolo[3,4-b]pyridin-6-yl)-[(3R)-1-[5-(trifluoromethyl)pyrazin-2-yl]pyrrolidin-3-yl]methanone] | 1820 | 906 |
| COc1ccnc(N2CC[C@@H](C(=O)N3Cc4nc(C)c(Cl)c(C)c4C3)C2)n1 [Example 48, (3-chloro-2,4-dimethyl-5,7-dihydropyrrolo[3,4-b]pyridin-6-yl)-[(3R)-1-(4-methoxypyrimidin-2-yl)pyrrolidin-3-yl]methanone] | 8130 | 2200 |
| Cc1ccnc(N2CC[C@@H](C(=O)N3Cc4nc(C)c(Cl)c(C)c4C3)C2)n1 [Example 49, (3-chloro-2,4-dimethyl-5,7-dihydropyrrolo[3,4-b]pyridin-6-yl)-[(3R)-1-(4-methylpyrimidin-2-yl)pyrrolidin-3-yl]methanone] | 3350 | 1670 |
| Cc1nc2c(c(C)c1Cl)CN(C(=O)[C@@H]1CCN(c3nccc(C(F)(F)F)n3)C1)C2 [Example 50, (3-chloro-2,4-dimethyl-5,7-dihydropyrrolo[3,4-b]pyridin-6-yl)-[(3R)-1-[4-(trifluoromethyl)pyrimidin-2-yl]pyrrolidin-3-yl]methanone] | 4380 | 1820 |
